Source: patent US20050020544A1, “Bicyclic CB2 cannabinoid receptor ligands” (priority 2002, published 2005)

Key:
Format in all cases: in vivo, mouse
[1] = tested on: Male ICR mice; experiment: Rotarod locomotor ability; settings: 10 mg/kg i.p.
Experimental: The effect of test compounds on overall locomotor ability was assessed in a second experimental setup, where the animals were submitted to a functional test using the rotarod apparatus as described by Rozas et al. (Rozas G. et al., J. of Neuroscience Methods 83: 165-75, 1998). The animals, male ICR mice (average body weight 40 g, Harlan, Israel), were trained for 4 days before beginning the experiment. Their task was to stay on the accelerating rod without falling for 12 minutes (3 minutes at each speed). The tested speeds were: 15, 19, 23 and 27 rpm. Animal performance on the rod was scored as follows: each animal could obtain a maximum of 3 points (1 for each minute) for full walking on the rod at each speed. Therefore, an animal could get a maximum score of 12 points (3 for each speed). Catching the circling beam of the rod without walking subtracted 0.5 points for every 3 circles circled by the animal. […] After proper training, at least 6 animals per group were administered i.p. with various doses of test compounds and controls, at volume dose of 5 ml/kg. Score was determined in the rotarod apparatus at time zero prior to compound injection and 30 minutes, 3 and 24 hours after compound or vehicle administration.
Results are expressed as mean±SD and the differences between vehicle and treatments are compared by ANOVA, followed by post-hoc Tukey's test. […] This effect disappeared at later time points with average scores of 9.7 and 11.9 at 3 and 24 hours respectively.

[2] = tested on: Male ICR mice; experiment: Visceral pain induced by i.p. acetic acid
Experimental: Male ICR mice (25 g average body weight, Harlan, Israel) were pretreated by i.v. injection at volume dose of 5 ml/kg of vehicle, control and test compounds at various doses. Each treatment group was composed of at least 4 animals. Fifteen minutes later, the mice were injected i.p. with 10 ml/kg of 0.6% acetic acid and the number of withers is counted over a period of 5 minutes, starting 5 minutes after the acetic acid administration. The results are expressed as mean number of withers±SD.

[3] = tested on: BALB/c inbred female mice; experiment: ConA induced liver injury; settings: 1 mg/kg i.v., 8 hours of ConA treatment
Experimental: Each experimental group contains at least 5 BALB/c inbred female mice (25 g average weight, Harlan, Israel). The negative control group is composed of mice injected with saline instead of ConA. The injection of ConA (Sigma) is done i.v. at the base of the tail at the dose of 10 mg/kg in saline. The treatments are injected i.v. at 1 mg/kg, 30 minutes prior to the ConA injection. Compounds are dissolved in CREMOPHOR EL®:ethanol and vehicle only was included as an internal control.
Impact of treatment is monitored at three levels. First, blood samples (200-400 μl) are collected at predetermined time points alter ConA injection, using retro-orbital puncture. After short centrifugation (5000 rpm for 2 min) serum is recovered and stored at −80° C. until further use for determination of cytokines levels by ELISA and aminotransferase leakage from the liver as a marker for liver injury. In parallel, the level of cytokines, or other inflammatory mediators, is also determined in the organs of interests. For this purpose, the mice are killed by dislocation of the cervical vertebrae, at predetermined time points following ConA injection. […] Cells are incubated for 24 hours and cytokine levels in the supernatant are determined by ELISA as previously described.
The effect of compound A on liver injury was assessed by measuring the level of ALT in the plasma following 8 hours of ConA treatment. […]

CCCCCCC(C)(C)c1cc(O)c(C2CC(=O)C3CC2C3(C)C)c(O)c1 (single isomer, unassigned; (-)) [Compound A, (−)-4-[4-(1,1-Dimethyl-heptyl)2,6-dihydroxy-phenyl]-6,6-dimethyl-bicyclo[3.1.1)heptan-2-one]
rotarod average score ([1]; 3 hours): 9.7
rotarod average score ([1]; 24 hours): 11.9
rotarod average score ([1]; thirty minutes, maximal score 12): 5.6
inhibition of number of withers as compared to vehicle ([2]; 0.5 mg/kg i.v.): 64%
number of withers ([2]; 0.5 mg/kg i.v., mean±SD): 7.9±4.8
inhibition of number of withers as compared to vehicle ([2]; 1 mg/kg i.v.): 95%
number of withers ([2]; 1 mg/kg i.v., mean±SD): 1.2±0.6
inhibition of number of withers as compared to vehicle ([2]; 2 mg/kg i.v.): 100%
number of withers ([2]; 2 mg/kg i.v.): no withers at all
decrease in ALT in the plasma [3]: 65%
